{"source": "patent EP2325185A1", "about": "“Plk inhibitor” (GPC Biotech AG, priority 2009, dated 2011)", "type_in_all_cases": "cell-based", "key": {"Plk1": {"molecular_target": "Plk1 (Homo sapiens, UniProt P53350)", "sequence (P53350 whole entry, species assumed)": "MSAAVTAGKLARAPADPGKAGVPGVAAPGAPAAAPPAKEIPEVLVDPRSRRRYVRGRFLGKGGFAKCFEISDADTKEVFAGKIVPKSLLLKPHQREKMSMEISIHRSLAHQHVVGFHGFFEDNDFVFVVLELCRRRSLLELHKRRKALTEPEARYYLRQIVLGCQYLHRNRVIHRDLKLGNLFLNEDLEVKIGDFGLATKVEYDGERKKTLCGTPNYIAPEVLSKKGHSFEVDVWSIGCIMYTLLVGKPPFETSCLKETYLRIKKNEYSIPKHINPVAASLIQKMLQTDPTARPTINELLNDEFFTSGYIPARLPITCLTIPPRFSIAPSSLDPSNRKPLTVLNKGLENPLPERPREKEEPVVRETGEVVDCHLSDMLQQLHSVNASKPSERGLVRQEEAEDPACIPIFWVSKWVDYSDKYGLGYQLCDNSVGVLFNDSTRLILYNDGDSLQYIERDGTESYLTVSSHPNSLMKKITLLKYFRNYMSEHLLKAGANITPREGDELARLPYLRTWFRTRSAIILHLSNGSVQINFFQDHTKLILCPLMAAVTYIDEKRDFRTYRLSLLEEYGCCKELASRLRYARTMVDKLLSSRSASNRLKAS", "test": "Cellular Plk1 kinase activity: nucleophosmin (B23) Ser4 phosphorylation in HCT116 cells (MSD electrochemiluminescence)", "conditions": "nocodazole-treated, 4 hours compound exposure, read-out: Biochemical IC50 Nucleophosmin assay", "procedure": "Cellular Plk1 kinase activity was measured by quantification of nucleophosmin (B23) Ser4 phosphorylation in a cancer cell line. Nucleophosmin (B23) Ser4 is phosphorylated by Plkl, and this phosphorylation can be specifically detected by cross-reactivity of a phospho-Mekl/2 antibody that is able to recognizes a mitotic-specific phosphorylated form of nucleophosmin (B23) in a nocodazole dependent way (Zhang, H., Shi, X., Paddon, H., Hampong, M., Dai, W., and Pelech, S. (2004) B23/Nuleophosmin Serin 4 Phosphorylation Mediates Mitotic Functions of Polo-like Kinase 1. J. Biol. Chem., 279(34), 35726-35734).\nBriefly, HCT116 cells (ATCC, Order No. CCL-247) were plated in 96 well dishes 24 hours prior to nocodazole treatment at 25 000 cells per well. Cells were then treated with 100 ng/ml nocodazole (Sigma-Aldrich, # M1404). […]\nThe cell lysates were thawed at room temperature and 40 µl were incubated on 96-well MULTI-ARRAY High Bind plates (L11XB; MSD) for 1.5 - 2 hours at room temperature. […] Then, 150 µl of 1x Read Buffer T (R92TC; MSD) were carefully added to each well and the plates were quantitatively detected for each well with a SECTOR™ Imager 6000 (MSD).\nInhibitory activity of the compound (IC) was calculated as % inhibition of nucleophosmin (B23) Ser4 phosphorylation compared to cells […]."}, "HT-29": {"system": "HT-29", "test": "SRB cell proliferation assay, HT-29", "conditions": "Homo sapiens, HT-29; 72 hours, SRB; read-out: CELLULAR IC50 HT-29", "procedure": "(§1) Cells were exposed to the test compound racemate at various concentrations appropriate to determine an IC50 for 72 hours. Cell proliferation was measured using the SRB assay according to Shekan et al (J Natl Cancer Inst (1990) 82, 1107-112) in order to estimate the IC50 values shown in Table 3. Briefly, cells were plated in 96 well dishes 24 hours prior to compound addition at the densities specified in Table 5.1. The assay was terminated with the addition of cold TCA to a final concentration of 10% after growth medium has been removed and the plates were incubated over night at 4°C. The plates were then washed 5 times with water and 100µl of a Sulforhodamine B solution ([…]) was added to each well. The plates were then incubated for 10 minutes at room temperature before removal of unbound dye by washing with 1% acetic acid. The bound dye was solubilised with 10 mM Trizma base and the absorbance read at OD520.\n(§2) Inhibitory activity of the compound (IC) was calculated as % inhibition of cell proliferation compared to cells treated with the solvent (DMSO).\n(§3) Table 8.1: 18-Cell Line Panel"}, "HCT 116": {"system": "HCT 116", "test": "SRB cell proliferation assay, HCT 116", "conditions": "Homo sapiens, HCT-116; 72 hours, SRB; read-out: CELLULAR IC50 HCT 116", "procedure": "as §1, §2, §3"}, "IMR-90": {"system": "IMR-90", "test": "SRB cell proliferation assay, IMR-90", "conditions": "Homo sapiens, IMR-90; 72 hours, SRB; read-out: CELLULAR IC50 IMR-90", "procedure": "as §1, §2, §3"}}}
{"smiles": "CCC1C(=O)N(C)c2cnc(Nc3ccc(C(=O)N[C@H]4CC[C@H](N5CCN(CC6CC6)CC5)CC4)cc3OC)nc2N1N(C)C", "note": "(mixture of isomers) [racemic mixture containing compound 1 and (S)-enantiomer, N-[trans-4-(4-Cyclopropylmethyl-piperazin-1-yl)-cyclohexyl]-4-(8-dimethylamino-7-ethyl-5-methyl-6-oxo-5,6,7,8-tetrahydro-pteridin-2-ylamino)-3-methoxy-benzamide]", "values": [{"measurement": "IC50", "setting": "Plk1", "result": "< 100", "unit": "nM"}, {"measurement": "IC50", "setting": "HT-29", "result": "< 1000", "unit": "nM"}, {"measurement": "IC50", "setting": "HCT 116", "result": "< 1000", "unit": "nM"}, {"measurement": "IC50", "setting": "IMR-90", "result": "> 1000", "unit": "nM"}]}
